Publication PMC9147192, “Small Molecule Arranged Thermal Proximity Coaggregation (smarTPCA)—A Novel Approach to Characterize Protein–Protein Interactions in Living Cells by Similar Isothermal Dose–Responses” (International Journal of Molecular Sciences, 2022)

How the values were obtained:
[1] = biological target: MAPKAPK2 (Homo sapiens, UniProt P49137); assay: TPP-TR in living HL-60 cells; format: cell-based; conditions: 20 μM, single set (no replicates)
Protocol: (§1) HL-60 cells (ATCC No. CCL-240) were expanded to about […] in 80 mL cell culture medium (RPMI-1640 supplemented with 10% (v/v) FBS, 1% (v/v) penicillin-streptomycin and 1% (v/v) L-glutamine solution) and divided into four aliquots (20 mL each, 25 million cells per flask). […] The same volume of DMSO was added to the remaining aliquot serving as the vehicle (DMSO) control. After incubation (1 h, 37 °C, 5% CO2, in cell culture CO2 incubator), the cell suspensions were transferred into 50 mL conical tubes, cell number and viability were determined, and after centrifugation (300 relative centrifugal force (rcf), 3 min, room temperature (r.t.)), the supernatants were completely removed and discarded. The cells were washed using 20 mL Dulbecco’s phosphate-buffered saline (PBS), respectively, by resuspension and centrifugation (300 rcf, 3 min, r.t.). After the complete removal of the supernatants, the cells were transferred into pre-weighed 2 mL Eppendorf tubes using 0.5 mL PBS (r.t.), respectively, for resuspending. After centrifugation (300 rcf, 3 min, r.t.) and removing as much as possible of the supernatants, the cell wet weights were determined.
(§2) The suspensions were shortly centrifuged (1 s or less) using a benchtop centrifuge that was equipped with an inset for PCR tubes to release trapped air and to achieve an even liquid level without pelleting the cells. The 100 µL cell suspensions were then temperature treated by a 7 min pre-incubation at r.t., a 3 min incubation at the following different temperatures in the PCR cycler (DNA Engine Tetrad 2, lid temperature 70 °C, gradient block 1: 36–55 °C, gradient block 2: 48–67 °C), and a 3 min post-incubation at r.t. in a metal heating block for uniform heat dissipation.
(§3) The cells were lysed by four freeze/thaw cycles consisting of thawing the samples (in a heat block set to 25 °C and shaking at 1250 rpm) accompanied by mixing them several times by inversion and then shock freezing them again in liquid nitrogen. The resulting lysates were kept cold (on ice or 4 °C) from then on. After centrifugation (20,000 rcf, 30 min, 4 °C) to pellet the cell debris together with precipitated and aggregated proteins, the supernatants were recovered and, after determining the total protein concentration (Pierce 660 nm Protein Assay, BSA as standard), the resulting cell extracts containing the fraction of soluble, non-denatured proteins were shock frozen in liquid nitrogen and stored at −80 °C.
(§4) For each sample set comprising ten temperature range samples, the same volume of the cell extracts containing the fraction of soluble, non-denatured proteins was used for further analysis. Volume calculation for 30 µg total protein was performed as described for SDS-PAGE and immunoblotting. The calculated volume was respectively transferred into 0.5 mL LoBind Eppendorf tubes and evaporated to dryness using vacuum centrifugation (SpeedVac concentrator, Eppendorf, Hamburg, Germany). The dried proteins were each reconstituted in 10 µL of SDS sample buffer (containing DTT) and incubated for 30 min at 50 °C with shaking (700 rpm). 1.111 µL 1 M iodoacetamide (IAA) was added to each sample (final 100 mM IAA), then the samples were mixed and incubated for 30 min at r.t. in the dark. Sample quality was controlled by SDS-PAGE/silver staining using 0.926 µL of each sample (2.5 µg on average for the two lowest temperature samples; 26-well 4–12% Bis-Tris polyacrylamide gels, Novex NuPAGE, Thermo Scientific; 15 min at 50 V, about 1.5 h at 200 V using the recommended MOPS running buffer).

[2] = biological target: T1, MAPKAPK3 (Homo sapiens, UniProt Q16644); assay: TPP-TR in living HL-60 cells; format: cell-based; conditions: 20 μM, single set (no replicates)
Protocol: as §1, §2, §3, §4
Target sequence in this assay (Q16644 whole entry): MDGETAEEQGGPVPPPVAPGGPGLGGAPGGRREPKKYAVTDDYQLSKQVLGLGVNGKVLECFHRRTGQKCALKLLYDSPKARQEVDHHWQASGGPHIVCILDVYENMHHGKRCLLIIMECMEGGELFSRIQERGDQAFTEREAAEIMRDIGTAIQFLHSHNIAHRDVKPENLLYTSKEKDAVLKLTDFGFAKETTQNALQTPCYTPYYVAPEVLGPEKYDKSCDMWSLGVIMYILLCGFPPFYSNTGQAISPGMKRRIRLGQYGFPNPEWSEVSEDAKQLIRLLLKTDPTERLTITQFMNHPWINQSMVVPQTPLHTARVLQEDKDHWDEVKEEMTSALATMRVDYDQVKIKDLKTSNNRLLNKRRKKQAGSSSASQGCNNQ

[3] = biological target: MYLK (Homo sapiens, UniProt Q15746); assay: TPP-TR in living HL-60 cells; format: cell-based; conditions: 20 μM, single set (no replicates)
Protocol: as §1, §2, §3, §4

[4] = biological target: MAPK14 (Homo sapiens, UniProt Q16539); assay: TPP-CCR in living HL-60 cells; conditions: […] °C, TMT-MS
[5] = biological target: T1, MAPKAPK3; assay: TPP-CCR in living HL-60 cells; conditions: […] °C, TMT-MS
Target sequence in this assay (Q16644 whole entry): as above
Target sequence in this assay (Q16539 2-360 partner limits assumed): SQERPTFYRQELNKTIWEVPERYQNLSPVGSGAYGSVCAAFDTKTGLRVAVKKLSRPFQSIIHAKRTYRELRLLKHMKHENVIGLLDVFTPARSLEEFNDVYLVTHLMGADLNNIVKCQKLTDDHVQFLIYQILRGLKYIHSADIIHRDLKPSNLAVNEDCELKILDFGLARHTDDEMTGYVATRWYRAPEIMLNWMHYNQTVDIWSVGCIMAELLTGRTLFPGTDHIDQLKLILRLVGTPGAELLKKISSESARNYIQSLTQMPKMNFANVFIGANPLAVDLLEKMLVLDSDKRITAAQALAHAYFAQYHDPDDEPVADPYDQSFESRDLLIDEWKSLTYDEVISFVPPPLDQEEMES

[6] = biological target: T2, HN1L (Homo sapiens, UniProt Q9H910); assay: TPP-CCR in living HL-60 cells; conditions: for Hill slope (HN1L): living HL-60 cells, […] °C, TMT-MS
T2 sequence (Q9H910 1-190): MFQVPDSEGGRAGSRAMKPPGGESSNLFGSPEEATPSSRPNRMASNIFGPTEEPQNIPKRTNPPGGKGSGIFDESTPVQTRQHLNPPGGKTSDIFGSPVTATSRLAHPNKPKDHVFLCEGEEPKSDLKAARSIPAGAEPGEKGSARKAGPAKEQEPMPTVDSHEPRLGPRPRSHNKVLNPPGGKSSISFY

[7] = biological target: MAPK8 (Homo sapiens, UniProt P45983); assay: TPP-CCR in living HL-60 cells; conditions: […] °C, TMT-MS
Sequence of MAPK8 (P45983 whole entry): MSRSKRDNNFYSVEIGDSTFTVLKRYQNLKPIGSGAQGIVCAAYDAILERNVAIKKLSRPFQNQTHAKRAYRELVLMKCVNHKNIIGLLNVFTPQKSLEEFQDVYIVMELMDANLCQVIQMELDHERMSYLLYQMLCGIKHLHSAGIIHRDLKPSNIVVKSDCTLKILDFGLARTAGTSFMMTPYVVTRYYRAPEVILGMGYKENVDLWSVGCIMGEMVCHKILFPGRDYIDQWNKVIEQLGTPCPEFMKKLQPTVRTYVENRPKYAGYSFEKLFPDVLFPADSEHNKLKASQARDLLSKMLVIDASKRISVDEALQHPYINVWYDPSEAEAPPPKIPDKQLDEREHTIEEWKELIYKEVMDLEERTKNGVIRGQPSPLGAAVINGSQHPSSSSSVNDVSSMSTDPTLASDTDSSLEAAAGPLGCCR

Sequence of MAPKAPK2 (P49137 whole entry): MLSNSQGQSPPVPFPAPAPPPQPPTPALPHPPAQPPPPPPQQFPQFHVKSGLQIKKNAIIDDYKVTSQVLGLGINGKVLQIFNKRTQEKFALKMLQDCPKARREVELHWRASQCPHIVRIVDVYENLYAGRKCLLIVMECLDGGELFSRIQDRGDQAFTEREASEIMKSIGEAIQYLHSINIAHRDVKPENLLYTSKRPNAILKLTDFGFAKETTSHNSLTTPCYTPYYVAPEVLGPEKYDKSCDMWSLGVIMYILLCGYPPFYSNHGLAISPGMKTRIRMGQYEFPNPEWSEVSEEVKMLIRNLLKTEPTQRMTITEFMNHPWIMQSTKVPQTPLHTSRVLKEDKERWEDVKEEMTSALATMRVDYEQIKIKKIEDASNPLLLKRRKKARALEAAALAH
Sequence of MYLK (Q15746 whole entry): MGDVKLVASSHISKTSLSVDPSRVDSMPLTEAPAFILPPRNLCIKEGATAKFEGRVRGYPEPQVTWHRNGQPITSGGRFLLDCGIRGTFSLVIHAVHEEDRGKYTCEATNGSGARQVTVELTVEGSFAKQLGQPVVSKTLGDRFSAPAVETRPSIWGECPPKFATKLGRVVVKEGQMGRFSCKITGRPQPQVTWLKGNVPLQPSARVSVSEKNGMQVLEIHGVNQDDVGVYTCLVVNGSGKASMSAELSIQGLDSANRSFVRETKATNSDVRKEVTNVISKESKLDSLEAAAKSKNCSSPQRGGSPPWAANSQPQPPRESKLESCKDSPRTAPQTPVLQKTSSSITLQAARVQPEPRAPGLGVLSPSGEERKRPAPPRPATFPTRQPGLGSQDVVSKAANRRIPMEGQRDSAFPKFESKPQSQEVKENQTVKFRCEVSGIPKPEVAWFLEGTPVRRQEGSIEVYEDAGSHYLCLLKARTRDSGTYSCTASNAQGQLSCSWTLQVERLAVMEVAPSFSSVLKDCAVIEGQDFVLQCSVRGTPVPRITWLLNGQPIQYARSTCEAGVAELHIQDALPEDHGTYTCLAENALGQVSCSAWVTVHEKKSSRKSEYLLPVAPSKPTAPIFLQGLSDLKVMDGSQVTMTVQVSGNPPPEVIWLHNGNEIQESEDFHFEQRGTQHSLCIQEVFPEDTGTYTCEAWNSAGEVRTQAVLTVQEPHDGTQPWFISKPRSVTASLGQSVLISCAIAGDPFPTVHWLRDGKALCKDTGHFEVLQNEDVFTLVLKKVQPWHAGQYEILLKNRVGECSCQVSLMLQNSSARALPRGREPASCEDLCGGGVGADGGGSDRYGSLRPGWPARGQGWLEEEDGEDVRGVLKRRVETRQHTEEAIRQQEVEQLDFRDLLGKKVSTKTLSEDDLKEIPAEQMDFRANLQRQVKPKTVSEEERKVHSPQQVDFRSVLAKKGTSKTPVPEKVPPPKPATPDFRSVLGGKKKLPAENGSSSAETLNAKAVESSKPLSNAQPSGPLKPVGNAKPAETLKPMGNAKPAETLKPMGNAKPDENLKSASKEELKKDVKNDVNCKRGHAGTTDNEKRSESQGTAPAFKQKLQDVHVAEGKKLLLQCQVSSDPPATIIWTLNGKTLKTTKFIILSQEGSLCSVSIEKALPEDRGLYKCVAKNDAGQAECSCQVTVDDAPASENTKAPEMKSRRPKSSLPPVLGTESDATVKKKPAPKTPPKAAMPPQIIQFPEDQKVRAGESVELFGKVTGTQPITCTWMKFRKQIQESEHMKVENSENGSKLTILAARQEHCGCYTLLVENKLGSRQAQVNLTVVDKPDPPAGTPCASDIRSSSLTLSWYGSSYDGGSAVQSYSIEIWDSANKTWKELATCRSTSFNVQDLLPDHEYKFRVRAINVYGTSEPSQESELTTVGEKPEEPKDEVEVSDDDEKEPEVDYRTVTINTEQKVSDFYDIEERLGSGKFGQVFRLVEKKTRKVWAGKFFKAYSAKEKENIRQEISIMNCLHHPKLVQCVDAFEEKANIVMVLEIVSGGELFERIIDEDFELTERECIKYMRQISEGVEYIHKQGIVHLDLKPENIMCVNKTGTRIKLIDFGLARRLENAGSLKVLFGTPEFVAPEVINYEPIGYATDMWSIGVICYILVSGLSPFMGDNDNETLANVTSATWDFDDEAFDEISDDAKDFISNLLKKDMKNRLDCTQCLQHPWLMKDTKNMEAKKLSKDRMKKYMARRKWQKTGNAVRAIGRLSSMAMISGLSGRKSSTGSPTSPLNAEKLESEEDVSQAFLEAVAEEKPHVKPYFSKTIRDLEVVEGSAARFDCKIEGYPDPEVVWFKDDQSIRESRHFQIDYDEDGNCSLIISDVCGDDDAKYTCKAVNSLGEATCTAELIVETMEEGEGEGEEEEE
Sequence of MAPK14 (Q16539 whole entry): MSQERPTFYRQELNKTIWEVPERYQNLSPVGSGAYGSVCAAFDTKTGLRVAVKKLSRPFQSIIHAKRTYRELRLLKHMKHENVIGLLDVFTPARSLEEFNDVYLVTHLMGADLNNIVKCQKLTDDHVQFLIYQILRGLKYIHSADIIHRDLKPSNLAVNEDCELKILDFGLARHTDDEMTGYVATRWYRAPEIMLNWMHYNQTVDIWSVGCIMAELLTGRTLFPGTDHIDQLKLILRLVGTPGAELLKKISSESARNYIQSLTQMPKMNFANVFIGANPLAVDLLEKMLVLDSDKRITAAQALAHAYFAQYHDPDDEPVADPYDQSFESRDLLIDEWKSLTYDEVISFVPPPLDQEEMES

Row | SMILES | thermal stabilization in melting curves (MAPKAPK2) [1] | thermal stabilization in melting curves (MAPKAPK3) [2] | thermal stabilization in melting curves (MYLK) [3] | Hill slope (MAPK14) [4] | Hill slope (MAPKAPK3) [5] | EC50 [6] [µM] | Hill slope (HN1L) [6] | Hill slope (MAPK8) [7] | Hill slope ([6]; TPP-CCR, living cells, HN1L)
1 | Cn1c(NC[C@@H](N)Cc2ccccc2)nc(-c2ccncc2)c(-c2ccc3ccccc3c2)c1=O [AMG-548] | thermal stabilizations | thermal stabilizations | thermal stabilizations | 0.57 | 0.68 | 0.389 | 0.39 | 0.24 | 
2 | Cc1cnc(Nc2ccc(F)cc2Cl)nc1-c1c[nH]c(C(=O)N[C@H](CO)c2cccc(Cl)c2)c1 [ERK 11e] |  |  |  |  |  | 0.11 | 0.20 |  | 0.20
3 | C[S+]([O-])c1ccc(-c2nc(-c3ccncc3)c(-c3ccc(F)cc3)[nH]2)cc1 (stereo not drawn) [SB203580] | thermal stabilizations | thermal stabilizations | thermal stabilizations |  |  |  |  | 0.44 | 
